Counter-ions that a name gives are not always drawn. Like-named read-outs stand apart in the source and are kept apart here.
Legend:
[1] = tested on: right ventricle of isolated rabbit heart; experiment: Electrophysiological tests in the isolated rabbit heart, right ventricle; details: n = 4
Experimental: (§1) Hearts of rabbits of both sexes, weighing 1 to 2 kg, were removed, the right and left auricles and a segment of the right ventricle were prepared and placed into a vessel filled with nutrient solution. Bipolar platinum electrodes (a stimulating electrode and a lead electrode) were placed on the organ strips, and the electric stimulus threshold and the speed of impulse conduction were measured. The effective refractory period was determined on the basis of the maximal driving frequency.

in vivo = details: mouse
[2] = tested on: mice treated with aconitin; experiment: animal or person; type: in vivo; details: Mus musculus, read-out: Delay in the appearance time of arrhythmia
Experimental: Arrhytmia was induced in male mice, weighing 20 to 25 g, by treating them continuously, at a rate of 0.2 ml/min with an infusion containing 5 μg/kg of aconitin. The test compound was administered to the animals either intraperitoneally (by injecting it into the abdominal cavity) 15 minutes before the start of the infusion, or orally 60 minutes before the onset of the infusion. The time of the appearance of arrhythmia was recorded, and the percentage of delay was calculated in relation to the data obtained in the controls, pretreated with 0.9 percent sodium chloride solution only [B. Vargaftig and J. L. Coignet: European J. of Pharmacol. 6, 49 to 55 (1969); N. K. Dadkar and B. K. Bhattachariya: Arch. Int. Pharmacodyn. 212, 297 to 301 (1974); D. U. Nwagwu, T. L. Holcslaw and S. J. Stohs: Arch. Int. Pharmacodyn. 229, 219 to 226 (1977)].

[3] = tested on: left auricle of isolated rabbit heart; experiment: Electrophysiological tests in the isolated rabbit heart, left auricle; details: for Change in conduction time / Change in electric stimulus threshold / Change in max. driving frequency: n = 4
Experimental: as §1

Structure (SMILES): Cc1ccccc1NNC(=N)N(C)C [Example 1, 1-(2-Methylphenyl)-4,4-dimethyl-aminoguanidine hydrochloride]
- Change in conduction time ([1]; 0.25 mg/l): +0.2%
- Change in electric stimulus threshold ([1]; 0.25 mg/l): 0%
- Change in max. driving frequency ([1]; 0.25 mg/l): -0.88%
- Change in conduction time ([1]; 0.5 mg/l): +3.31%
- Change in electric stimulus threshold ([1]; 0.5 mg/l): -1.43%
- Change in max. driving frequency ([1]; 0.5 mg/l): -0.38%
- Change in conduction time ([1]; 1.0 mg/l): +14.84%
- Change in electric stimulus threshold ([1]; 1.0 mg/l): +5.42%
- Change in max. driving frequency ([1]; 1.0 mg/l): -1.82%
- Change in conduction time ([1]; 2.0 mg/l): +36.75%
- Change in electric stimulus threshold ([1]; 2.0 mg/l): +20.6%
- Change in max. driving frequency ([1]; 2.0 mg/l): -10.33%
- Change in conduction time ([1]; 4.0 mg/l): +52.45%
- Change in electric stimulus threshold ([1]; 4.0 mg/l): +23.6%
- Change in max. driving frequency ([1]; 4.0 mg/l): -17.43%
- Change in conduction time ([1]; 8.0 mg/l): +77.82%
- Change in electric stimulus threshold ([1]; 8.0 mg/l): +35.8%
- Change in max. driving frequency ([1]; 8.0 mg/l): -36.8%
- LD50 (in vivo; ip): 81 mg/kg
- LD50 (in vivo; po): 203 mg/kg
- change in vivo at 25 mg/kg ([2]; ip): 164%
- change in vivo at 50 mg/kg ([2]; ip): 174%
- change in vivo at 50 mg/kg ([2]; po): 102%
- change in vivo at 100 mg/kg ([2]; po): 197%
- Change in conduction time ([3]; 0.25 mg/l): +0.54%
- Change in electric stimulus threshold ([3]; 0.25 mg/l): 0%
- Change in max. driving frequency ([3]; 0.25 mg/l): -0.08%
- Change in conduction time ([3]; 0.5 mg/l): +8.66%
- Change in electric stimulus threshold ([3]; 0.5 mg/l): -1.82%
- Change in max. driving frequency ([3]; 0.5 mg/l): -0.98%
- Change in conduction time ([3]; 1.0 mg/l): +12.55%
- Change in electric stimulus threshold ([3]; 1.0 mg/l): -11.8%
- Change in max. driving frequency ([3]; 1.0 mg/l): -9.21%
- Change in conduction time ([3]; 2.0 mg/l): +28.42%
- Change in electric stimulus threshold ([3]; 2.0 mg/l): +30.84%
- Change in max. driving frequency ([3]; 2.0 mg/l): -17.09%
- Change in conduction time ([3]; 4.0 mg/l): +47.87%
- Change in electric stimulus threshold ([3]; 4.0 mg/l): +43.4%
- Change in max. driving frequency ([3]; 4.0 mg/l): -28.82%
- Change in conduction time ([3]; 8.0 mg/l): +114.03%
- Change in electric stimulus threshold ([3]; 8.0 mg/l): +83.9%
- Change in max. driving frequency ([3]; 8.0 mg/l): -59.1%
- inhibition at 0.25 µg/mL ([3]; Oryctolagus cuniculus, 0.25 mg/l, n = 4, read-out: Contractility): 2.61%
- inhibition at 0.5 µg/mL ([3]; Oryctolagus cuniculus, 0.5 mg/l, n = 4, read-out: Contractility): 7.57%
- inhibition at 1 µg/mL ([3]; Oryctolagus cuniculus, 1.0 mg/l, n = 4, read-out: Contractility): 15.5%
- inhibition at 2 µg/mL ([3]; Oryctolagus cuniculus, 2.0 mg/l, n = 4, read-out: Contractility): 18.1%
- inhibition at 4 µg/mL ([3]; Oryctolagus cuniculus, 4.0 mg/l, n = 4, read-out: Contractility): 27.1%
- inhibition at 8 µg/mL ([3]; Oryctolagus cuniculus, 8.0 mg/l, n = 4, read-out: Contractility): 37.9%
